A value given as a limit tells only on which side of the number the result lay.

The subject of the first experiment is MIA PaCa-2 cells. The experiment in a line: Extracellular lactate production inhibition after 4 h, MIA PaCa-2. The following applies: Homo sapiens, MIA PaCa-2, read-out: IC50 (MiaPACa).
Description: (§1) Extracellular Lactate Production Inhibition after 4 h
(§2) Cells were plated in growth media supplemented with 10% FBS, followed by overnight recovery at 37° C., 5% CO2. […] Plates were then moved for 4 h incubation at 37° C., 5% CO2 with subsequent 20 μl media transfer to empty 384-well transparent plates. […] Plates were short-spun and measured kinetically in absorbance mode (530 nm, 12 min measurement time with 2-minute intervals between subsequent readouts at 30° C.). Differences in the signal between T8 min and T0min were normalized to vehicle (cells w/ 0.25% DMSO) and quasi-positive (LCIS buffer w/ 0.25% DMSO) controls and plotted against logarithmically-transformed test compound concentrations with fitting the 4-parameter model in GraphPad Prism software.
With `Cc1ccc2cccnc2c1S(=O)(=O)Nc1ccccc1C#Cc1cnc(C(=O)O)c2ccccc12` [Compound 208, 4-{2-[2-(7-methylquinoline-8-sulfonamido)phenyl]ethynyl}isoquinoline-1-carboxylic acid], the half-inhibitory concentration (IC50) (as a rule, the concentration that gives 50% inhibition) was below 1 µM.

In the next experiment the test system is SNU398 cells. The experiment in a line: Extracellular lactate production inhibition after 4 h, SNU398. The following applies: Homo sapiens, SNU-398, read-out: IC50 (SNU-398).
Description: as §1, §2
With `Cc1ccc2cccnc2c1S(=O)(=O)Nc1ccccc1C#Cc1cnc(C(=O)O)c2ccccc12` [Compound 208, 4-{2-[2-(7-methylquinoline-8-sulfonamido)phenyl]ethynyl}isoquinoline-1-carboxylic acid], the IC50 was below 1 µM.

The next experiment has as its system MDA-MB-231 cells. The experiment in a line: Extracellular lactate production inhibition after 4 h, MDA-MB-231. The following applies: Homo sapiens, MDA-MB-231.
In turn, `Cc1ccc2cccnc2c1S(=O)(=O)Nc1ccccc1C#Cc1cnc(C(=O)O)c2ccccc12` [Compound 208, 4-{2-[2-(7-methylquinoline-8-sulfonamido)phenyl]ethynyl}isoquinoline-1-carboxylic acid] yielded an IC50 of 0.1 to 1 µM.

Take `CNc1ccnc2c(S(=O)(=O)Nc3ccccc3C#Cc3cnc(C(=O)O)cc3OC)cccc12` [Compound 419, 4-Methoxy-5-[2-(4-methylamino-quinoline-8-sulfonylamino)-phenylethynyl]-pyridine-2-carboxylic acid]: the IC50 was in the range of 1 to 100 µM.

Turning to `CN(C)c1ccnc2c(S(=O)(=O)Nc3ccccc3C#Cc3ccc(C(=O)O)nc3)cccc12` [Compound 420, 5-[2-(4-Dimethylamino-quinoline-8-sulfonylamino)-phenylethynyl]-pyridine-2-carboxylic acid], the concentration for half-maximal inhibition (IC50) fell in the range of 1 to 100 µM.

Take `Cc1cc(C(=O)O)ncc1C#Cc1ccccc1NS(=O)(=O)c1cccc2c(N(C)C)ccnc12` [Compound 421, 5-[2-(4-Dimethylamino-quinoline-8-sulfonylamino)-phenylethynyl]-4-methyl-pyridine-2-carboxylic acid]: the IC50 lay within 0.1 to 1 µM.

On to `O=C(O)c1ccc(C#Cc2ccccc2NS(=O)(=O)c2cccc3c(N4CCOCC4)ccnc23)cn1` [Compound 422, 5-[2-(4-Morpholin-4-yl-quinoline-8-sulfonylamino)-phenylethynyl]-pyridine-2-carboxylic acid], for which the IC50 fell in the range of 1 to 100 µM.

`CNc1ccnc2c(S(=O)(=O)Nc3ccccc3C#Cc3ccc(C(=O)O)nc3)cccc12` [Compound 423, 5-[2-(4-Methylamino-quinoline-8-sulfonylamino)-phenylethynyl]-pyridine-2-carboxylic acid] returned an IC50 of 1 to 100 µM.

`CS(=O)(=Nc1ccccc1C#Cc1ccc(C(=O)O)nc1)c1ccccc1` (stereo not shown) [Compound 424, 5-[2-(2-{[methyl(oxo)phenyl-λ6-sulfanylidene]amino}phenyl)ethynyl] pyridine-2-carboxylic acid] had an IC50 of 1 to 100 µM.

Regarding `CNc1ccnc2c(S(=O)(=O)Nc3ccccc3C#Cc3cnc(C(=O)O)cc3C)cccc12` [Compound 425, 4-Methyl-5-[2-(4-methylamino-quinoline-8-sulfonylamino)-phenylethynyl]-pyridine-2-carboxylic acid], the IC50 lay within 1 to 100 µM.

On to `CCNc1ccnc2c(S(=O)(=O)Nc3ccccc3C#Cc3ccc(C(=O)O)nc3)cccc12` [Compound 426, 5-[2-(4-Ethylamino-quinoline-8-sulfonylamino)-phenylethynyl]-pyridine-2-carboxylic acid], for which the half-inhibitory concentration (IC50) lay in the range of 1 to 100 µM.

`CC(C)Nc1ccnc2c(S(=O)(=O)Nc3ccccc3C#Cc3ccc(C(=O)O)nc3)cccc12` [Compound 427, 5-[2-(4-Isopropylamino-quinoline-8-sulfonylamino)-phenylethynyl]-pyridine-2-carboxylic acid] returned an IC50 of 1 to 100 µM.

The molecule `COc1ccc(S(C)(=O)=Nc2ccccc2C#Cc2ccc(C(=O)O)nc2)cc1` (stereo not shown) [Compound 428, 5-[2-(2-{[(4-methoxyphenyl)(methyl)oxo-λ6-sulfanylidene]amino}phenyl)ethynyl] pyridine-2-carboxylic acid] showed an IC50 of 1 to 100 µM.

Turning to `CS(=O)(=Nc1ccccc1C#Cc1ccc(C(=O)O)nc1)c1cccc2cccnc12` (stereo not shown) [Compound 429, 5-[2-(2-{[methyl(oxo)(quinolin-8-yl)-λ6-sulfanylidene]amino}phenyl)ethynyl] pyridine-2-carboxylic acid], the IC50 lay within 1 to 100 µM.

The molecule `COc1ccc(NS(=O)(=O)c2ccccc2C#Cc2ccc(C(=O)O)nc2)c(C)c1C` [Compound 430, 5-(2-{2-[(4-methoxy-2,3-dimethylphenyl)sulfamoyl]phenyl}ethynyl)pyridine-2-carboxylic acid] had an IC50 of 1 to 100 µM.

Take `CS(=O)(=Nc1ccccc1C#Cc1ccc(C(=O)O)nc1)c1ccc(F)cc1` (stereo not shown) [Compound 431, 5-[2-(2-{[(4-fluorophenyl)(methyl)oxo-λ6-sulfanylidene]amino}phenyl)ethynyl] pyridine-2-carboxylic acid]: the IC50 lay within 1 to 100 µM.

For the molecule `O=C(O)c1ccc(C#Cc2ccccc2S(=O)(=O)Nc2cccc3cccnc23)cn1` [Compound 432, 5-(2-{2-[(quinolin-8-yl)sulfamoyl]phenyl}ethynyl)pyridine-2-carboxylic acid], the IC50 was 1 to 100 µM.

`COc1ccccc1S(C)(=O)=Nc1ccccc1C#Cc1ccc(C(=O)O)nc1` (stereo not shown) [Compound 433, 5-[2-(2-{[(2-methoxyphenyl)(methyl)oxo-λ6-sulfanylidene]amino}phenyl)ethynyl] pyridine-2-carboxylic acid] gave an IC50 of 1 to 100 µM.

The molecule `COc1cccc(S(C)(=O)=Nc2ccccc2C#Cc2ccc(C(=O)O)nc2)c1` (stereo not shown) [Compound 434, 5-[2-(2-{[(3-methoxyphenyl)(methyl)oxo-λ6-sulfanylidene]amino}phenyl)ethynyl] pyridine-2-carboxylic acid] came in with a 50% inhibitory concentration (IC50) of 0.1 to 1 µM.

`Cc1cccc(S(C)(=O)=Nc2ccccc2C#Cc2ccc(C(=O)O)nc2)c1` (stereo not shown) [Compound 435, 5-[2-(2-{[methyl(3-methylphenyl)oxo-λ6-sulfanylidene]amino}phenyl)ethynyl] pyridine-2-carboxylic acid] showed an IC50 of 1 to 100 µM.

As for `CS(=O)(=Nc1ccccc1C#Cc1ccc(C(=O)O)nc1)c1cccc(F)c1` (stereo not shown) [Compound 436, 5-[2-(2-{[(3-fluorophenyl)(methyl)oxo-λ6-sulfanylidene]amino}phenyl)ethynyl] pyridine-2-carboxylic acid], the IC50 lay within 1 to 100 µM.

`CS(=O)(=Nc1ccccc1C#Cc1ccc(C(=O)O)nc1)c1ccccc1F` (stereo not shown) [Compound 437, 5-[2-(2-{[(2-fluorophenyl)(methyl)oxo-λ6-sulfanylidene]amino}phenyl)ethynyl] pyridine-2-carboxylic acid] came in with an IC50 of 1 to 100 µM.

For `Cc1ccccc1S(C)(=O)=Nc1ccccc1C#Cc1ccc(C(=O)O)nc1` (stereo not shown) [Compound 438, 5-[2-(2-{[methyl(2-methylphenyl)oxo-λ6-sulfanylidene]amino}phenyl)ethynyl] pyridine-2-carboxylic acid], the IC50 is 1 to 100 µM.

As for `O=C(O)c1ccc(C#Cc2ccccc2S(=O)(=O)Nc2ccccc2)cn1` [Compound 439, 5-{2-[2-(phenylsulfamoyl)phenyl]ethynyl} pyridine-2-carboxylic acid], the IC50 is 1 to 100 µM.

On to `CN(c1ccccc1)S(=O)(=O)c1ccccc1C#Cc1ccc(C(=O)O)nc1` [Compound 440, 5-(2-{2-[methyl(phenyl)sulfamoyl]phenyl}-ethynyl)pyridine-2-carboxylic acid], for which the IC50 is 1 to 100 µM.

With `O=C(O)c1ncc(C#Cc2ccccc2NS(=O)(=O)c2cccc3c(Cl)ccnc23)c2ccccc12` [Compound 441, 4-{2-[2-(4-chloroquinoline-8-sulfonamido)phenyl]ethynyl}iso-quinoline-1-carboxylic acid], the IC50 fell in the range of 0.1 to 1 µM.

As to `CCOc1ccc(S(=O)(=O)Nc2ccccc2C#Cc2cnc(C(=O)O)c3ccccc23)c2ncccc12` [Compound 442, 4-{2-[2-(5-ethoxyquinoline-8-sulfonamido)phenyl]ethynyl}iso-quinoline-1-carboxylic acid], the IC50 is 0.01 to 0.1 µM.

For the molecule `NCCOCCOCCOCCOc1ccnc2c(S(=O)(=O)Nc3ccccc3C#Cc3cnc(C(=O)O)c4ccccc34)cccc12` [Compound 443, 4-(2-{2-[4-(2-{2-[2-(2-aminoethoxy)ethoxy]ethoxy}ethoxy)quinoline-8-sulfonamido]phenyl}-ethynyl)isoquinoline-1-carboxylic acid], the IC50 was in the range of 1 to 100 µM.

Regarding `Cc1ccc2cccc(S(=O)(=O)Nc3ccccc3C#Cc3cnc(C(=O)O)c4ccccc34)c2n1` [Compound 444, 4-{2-[2-(2-methylquinoline-8-sulfonamido)phenyl]ethynyl}iso-quinoline-1-carboxylic acid], the concentration for half-maximal inhibition (IC50) is 1 to 100 µM.

In turn, `CCc1ccc2cccnc2c1S(=O)(=O)Nc1ccccc1C#Cc1cnc(C(=O)O)c2ccccc12` [Compound 445, 4-{2-[2-(7-ethylquinoline-8-sulfonamido)phenyl]ethynyl}iso-quinoline-1-carboxylic acid] showed an IC50 of 1 to 100 µM.

For the molecule `Cc1cc(C)c2cccnc2c1S(=O)(=O)Nc1ccccc1C#Cc1cnc(C(=O)O)c2ccccc12` [Compound 446, 4-{2-[2-(5,7-dimethylquinoline-8-sulfonamido)phenyl]ethynyl}iso-quinoline-1-carboxylic acid], the IC50 lay in the range of 0.1 to 1 µM.

As to `CC(C)Oc1ccc(S(=O)(=O)Nc2ccccc2C#Cc2cnc(C(=O)O)c3ccccc23)c2ncccc12` [Compound 447, 4-(2-{2-[5-(propan-2-yloxy)quinoline-8-sulfonamido]phenyl}ethynyl)iso-quinoline-1-carboxylic acid], the IC50 was 0.1 to 1 µM.

The molecule `CS(=O)(=Nc1ccccc1C#Cc1cnc(C(=O)O)c2ccccc12)c1cccc2cccnc12` (stereo not shown) [Compound 448, 4-[2-(2-{[methyl(oxo)(quinolin-8-yl)-λ6-sulfanylidene]amino}phenyl)ethynyl]-isoquinoline-1-carboxylic acid] registered a 50% inhibitory concentration (IC50) of 0.1 to 1 µM.

`COc1ccc(S(C)(=O)=Nc2ccccc2C#Cc2cnc(C(=O)O)c3ccccc23)cc1` (stereo not shown) [Compound 449, 4-[2-(2-{[(4-methoxyphenyl)(methyl)oxo-λ6-sulfanylidene]amino}phenyl)ethynyl]-isoquinoline-1-carboxylic acid] registered an IC50 of 1 to 100 µM.

Molecule `O=C(O)c1ccc(C#Cc2ccccc2S(=O)(=O)Nc2cccc3ccccc23)cn1` [Compound 450, 5-(2-{2-[(naphthalen-1-yl)sulfamoyl]phenyl}ethynyl)pyridine-2-carboxylic acid] yielded an IC50 of 1 to 100 µM.

In turn, `CCc1cc(C#Cc2ccccc2NS(=O)(=O)c2ccc(OC)c3cccnc23)cnc1C(=O)O` [Compound 451, 3-Ethyl-5-[2-(5-methoxy-quinoline-8-sulfonylamino)-phenylethynyl]-pyridine-2-carboxylic acid] came in with an IC50 of 0.01 to 0.1 µM.

The same experiment, now with this note: Homo sapiens, MDA-MB-231, read-out: IC50 (MDA-MB231).
On to `Cc1ccc2cccnc2c1S(=O)(=O)Nc1ccccc1C#Cc1cnc(C(=O)O)c2ccccc12` [Compound 208, 4-{2-[2-(7-methylquinoline-8-sulfonamido)phenyl]ethynyl}isoquinoline-1-carboxylic acid], for which the IC50 was below 1 µM.

The record behind these values is patent publication US12351570B2 (MERCK PATENT GMBH, priority 2018, dated 2025).
